# Test results published in PMC8406801, “Naringenin Inhibits Platelet Activation and Arterial Thrombosis Through Inhibition of Phosphoinositide 3-Kinase and Cyclic Nucleotide Signaling” (Frontiers in Pharmacology, 2021).
# Where “and” joins values, the source holds several entries; their conditions need not be identical. Equal entries are not always repeated.
# Experiments:
# [1] = test system: Akt Thr308 phosphorylation; test: Immunoblotting of phospho-Akt (Thr308) in ADP-stimulated washed platelets; format: cell-based, rat; details: ADP 10 μmol/L, single replicates; for p-Akt Thr308 / t-Akt: raw data
# Experimental: (§1) For in vitro platelet aggregation, aliquots of washed platelets were preincubated with vehicle or various concentrations of naringenin for 5 min and stimulated with ADP (10 μmol/L) under stirring at 37°C for 5 min. For ex vivo platelet aggregation, PRP was incubated at 37°C for 5 min and stimulated with ADP (5 μmol/L) under stirring at 37 °C. The platelet aggregation was terminated by adding ethylenediaminetetraacetic acid (EDTA; 10 mM). Total protein was prepared using RIPA lysis buffer and protein content was determined by bicinchoninic acid (BCA) protein assay kit. Equal amounts of platelet proteins (30 μg) were separated on 10% SDS polyacrylamide gel electrophoresis (SDS-PAGE) and then transferred to poly vinylidene difluoride (PVDF) membranes and subjected to western blot. Blots were blocked with TBS-Tween 20 containing 5% BSA and probed with primary antibodies diluted in blocking solution at 4°C overnight followed by incubation with the corresponding HRP secondary antibodies. The protein bands were visualized using enhanced chemiluminescence (ECL).
# FIGURE 4 Naringenin inhibits PI3K-mediated signaling in ADP-induced platelets. Washed rat platelets were preincubated without or with naringenin at 37°C for 5 min, and then stimulated with ADP (10 μmol/L) under stirring for 5 min. Platelet proteins were then extracted and analyzed by immunoblotting using PI3Kp110β antibody (A) and phospho-specific antibodies such as Akt^Ser473 (B), Akt^Thr308 (C), ERK1/2^Thr202/Tyr204 (D) and GSK3β^Ser9 (E). Total level of GAPDH was measured on each sample as a loading control. The blots shown are representative of three separate experiments. The relative protein expression levels were quantified by ImageJ 1.47v software. The level of relative protein expression obtained with vehicle control (0 μM) was taken as 1. R represents the level of relative protein expression in resting platelets. Data are expressed as means ± SD (n = 3). *p < 0.05, **p < 0.01, ***p < 0.001 compared with the vehicle control group.
# ERK1/2 phosphorylation = test: Ex vivo immunoblotting of phospho-ERK1/2 in ADP-stimulated PRP of treated rats; set-up: species or system rat; details: for p-ERK1/2 / t-ERK (Fold to Control) / p-ERK1/2 / t-ERK (raw data): ex vivo, Figure 8E
# Experimental: Male SD rats were randomly divided into 5 groups with 6 rats in each group. […] Sixty minutes after the last sample treatment, blood was drawn from the abdominal aorta of rats into the siliconized vacutainers containing 1:9 (v/v) 3.8% sodium citrate. The collected blood was centrifuged at 100 × g for 10 min at room temperature to obtain PRP. […] The platelet counts of PRP were adjusted to 4×10^8 cells/mL using PPP. PRP was incubated for 5 min at 37°C and then stimulated by ADP (5 μM). The maximum platelet aggregation rate was determined as mentioned above.
# as §1
# Blood was collected and PRP was obtained after the last treatment. Platelet aggregation was induced by ADP (5 μmol/L) (A). Data are expressed as means ± SD (n = 6). After ADP stimulation, platelet proteins were then extracted and analyzed by immunoblotting using PI3Kp110β antibody (B) and phospho-specific antibodies such as Akt^Ser473 (C), Akt^Thr308 (D) and ERK1/2^Thr202/Tyr204 (E). Total level of GAPDH was measured on each sample as a loading control. The blots shown are representative of three separate experiments. The relative protein expression levels were quantified by ImageJ 1.47v software. The level of relative protein expression obtained with vehicle control was taken as 1. R represents the level of relative protein expression in resting platelets. Data are expressed as means ± SD (n = 3). *p < 0.05, **p < 0.01, ***p < 0.001 compared with the vehicle control group (Con).
# To further investigate the antiplatelet mechanisms of naringenin ex vivo, several signaling molecules such as PI3Kp110β, Akt and ERK were detected. After oral administration of naringenin (200, 400, and 800 mg/kg) to rats for 7 days, rat PRP was prepared and stimulated by ADP (5 μmol/L), and platelets were lysed to determine protein phosphorylation levels using western blot.
smiles,measurement,setting,value
O=C1C[C@@H](c2ccc(O)cc2)Oc2cc(O)cc(O)c21 [Naringenin],p-Akt Thr308 / t-Akt,[1]; 100 μM,0.1089 and 0.0807 and 0.1359
same,p-Akt Thr308 / t-Akt (Fold to ADP only),[1]; 100 μM,0.3238 Fold to ADP only and 0.2400 Fold to ADP only and 0.4039 Fold to ADP only
same,p-Akt Thr308 / t-Akt,[1]; 200 μM,0.0912 and 0.0481 and 0.0944
same,p-Akt Thr308 / t-Akt (Fold to ADP only),[1]; 200 μM,0.2711 Fold to ADP only and 0.1429 Fold to ADP only and 0.2806 Fold to ADP only
same,p-Akt Thr308 / t-Akt,[1]; 400 μM,0.0712 and 0.0237 and 0.0830
same,p-Akt Thr308 / t-Akt (Fold to ADP only),[1]; 400 μM,0.2116 Fold to ADP only and 0.0703 Fold to ADP only and 0.2468 Fold to ADP only
same,p-Akt Thr308 / t-Akt,[1]; 800 μM,0.0216 and 0.0199 and 0.0438
same,p-Akt Thr308 / t-Akt (Fold to ADP only),[1]; 800 μM,0.0641 Fold to ADP only and 0.0591 Fold to ADP only and 0.1303 Fold to ADP only
same,p-ERK1/2 / t-ERK (Fold to Control),ERK1/2 phosphorylation; naringenin 200mg/kg,0.4913 and 0.9007 and 0.8159
same,p-ERK1/2 / t-ERK (raw data),ERK1/2 phosphorylation; naringenin 200mg/kg,0.4317 and 0.7915 and 0.7170
same,p-ERK1/2 / t-ERK (Fold to Control),ERK1/2 phosphorylation; naringenin 800mg/kg,0.4112 and 0.5367 and 0.7060
same,p-ERK1/2 / t-ERK (raw data),ERK1/2 phosphorylation; naringenin 800mg/kg,0.3613 and 0.4716 and 0.6204
same,phosphorylation of ERK in rat PRP ex vivo,"ERK1/2 phosphorylation; rats, oral 200, 400, and 800 mg/kg for 7 days, ADP 5 μmol/L",significantly suppressed
